Measurements taken from paper PMC11554538, “Region-independent active CNS net uptake of marketed H^+/OC antiporter system substrates” (Frontiers in Cellular Neuroscience, 2024).
Counter-ions that a name gives are not always drawn. Like-named read-outs stand apart in the source and are kept apart here.

Assays:
[1] = cited from earlier work
[2] = Plasma protein binding by equilibrium dialysis; conditions: rat; for fraction unbound at 6 h: pH 7.4, Unbound fraction in plasma, fu,plasma
Procedure: Equilibrium dialysis was employed to determine the fraction of unbound drug in plasma (fu,plasma), homogenates of whole-brain (fu,brain) and the CNS regions of interest (fu,ROI) including the frontal cortex, parietal cortex, cerebellum, striatum, hippocampus, and spinal cord. […] Briefly, a Teflon 96-well plate (model HTD96b, HTDialysis LLC, Gales Ferry, CT, USA) with a cellulose membrane with a 12–14 kDa molecular weight cutoff was used. The cellulose membrane was treated according to the recommendations from the manufacturer before starting the experiment (HTDialysis LLC, Gales Ferry, CT, USA). Fresh plasma (n=3 rats per drug) was obtained on the day of the experiment and the pH of the plasma was adjusted to 7.40 using H3PO4. […] Whole brain and CNS regions of interest (n = 3–4 rats per drug) were homogenized in 1:9 (w:v) PBS pH 7.40. Diluted brain samples were individually spiked to a final concentration of 1,000 nM. Hundred μL of undiluted spiked plasma samples or homogenates were dialyzed against equal volumes of PBS, pH 7.40, for 6 h at 37°C at 200 rpm in an incubator with orbital shaking (MaxQ4450 Thermo Fisher Scientific, NinoLab, Sweden). One to three technical replicates were tested per biological replicate. Drug recovery and thermostability in plasma and brain were analyzed in each experiment by sampling spiked samples before and after the 6-h incubation. […] At the end of the 6-h incubation, 50 μL PBS sample from the receiver chambers was transferred into a Corning® 0.33 mL round-bottom polypropylene 96-well plate (VWR, Stockholm, Sweden) containing 50 μL blank plasma or 1:9 (w:v) brain homogenate using a multichannel pipette. Immediately after this step, 50 μL spiked plasma or brain homogenate was taken from the donor chambers and added to the same 96-well plate containing 50 μL of blank PBS. The 96-well plate was sealed with aluminum film, vortexed and stored at −20°C pending bioanalysis. The fraction of unbound drug in plasma was assessed as a ratio between buffer and plasma concentrations. The unbound fraction of drug in the diluted (D) CNS tissue homogenate (fu,hD) was calculated as: […]

in vitro [3] = conditions: rat
[4] = rat, in vivo; for Cu,brainISF,ss (unbound steady-state concentration in brain interstitial fluid): male, Sprague-Dawley
[5] = male, Sprague-Dawley, rat, in vivo
in vivo [6] = conditions: male, Sprague-Dawley, rat
in vitro [7] = conditions: rat; remark: listed apart in the source
in vivo [8] = conditions: male, Sprague-Dawley, rat, iv
[9] = rat, 5 h
[10] = brain homogenate, pH 7.4, Unbound fraction fu,ROI (fu,brain)
[11] = tissue homogenate, pH 7.4, Unbound fraction fu,ROI
[12] = cerebral microdialysis, ref Kitamura et al., 2016

SMILES | Kp,uu,ROI (unbound ROI-to-plasma concentration ratio) [4] | Reported Kp,uu [1, 12] | fraction unbound at 6 h ([2]; plasma) | fraction unbound at 6 h, 1000 nM (in vitro [3]; [10]) | fraction unbound at 6 h, 1000 nM (in vitro [3]; [11]) | Cu,brainISF,ss (unbound steady-state concentration in brain interstitial fluid) ([4]; 4 h) | Ctot,CSF,ss (total CSF concentration at steady state, assumed equal to unbound) ([5]; 4 h) | Kp uu at 5 h (in vitro [7]) | further results
COc1cccc(C2(O)CCCCC2CN(C)C)c1 (centres unmarked) [Tramadol, tramadol hydrochloride] | exceeding unity | – | – | – | – | – | – | – | Reported Kp,uu ([1]; in vivo): 2.90 (Kitamura et al., [2016]) 2.30 (Kitamura et al., [2014]); fraction unbound at 6 h ([2]; undiluted rat plasma pH 7.40, 500 nM (memantine 500 ng/mL), 6 h, 37°C, mean ± SD): 0.827 ± 0.027; fraction unbound (in vitro [3]; [10]): 0.496 ± 0.128; fraction unbound (in vitro [3]; [11]): 0.462 ± 0.064; Cu,brainISF,ss (unbound steady-state concentration in brain interstitial fluid) [4]: 95.0±9.4; Ctot,CSF,ss (total CSF concentration at steady state, assumed equal to unbound) [5]: 47.7±8.2; Kp uu at 4 h (in vivo [6]): 1.49 ± 0.49; Kp uu (in vitro [7]): 2.01
COc1ccc(CN(CCN(C)C)c2ccccn2)cc1 [Pyrilamine, Pyrilamine maleate] | exceeding unity | 2.50 (Kitamura et al., [2016]) | 0.386 ± 0.093 | 0.093 ± 0.012 | 0.103 ± 0.013 | 21.6±2.0 ng/g brain | 7.7±1.9 | 1.88 | Difference between mean Kp,uu,ROI in the whole brain and Kp,uu,CSF ([5]; 4 h): 2.8 fold
CC12CC3CC(C)(C1)CC(N)(C3)C2 [Memantine, memantine hydrochloride] | exceeding unity | 1.80 | 0.543 ± 0.037 | – | – | 194.3±38.5 ng/g brain | – | 2.11 | Reported Kp,uu ([1]; cerebral microdialysis, ref Kawase et al., 2021a): 2.03; Kp at 4 h (in vivo [8]): 41.7
CC(NC(C)(C)C)C(=O)c1cccc(Cl)c1 (centres unmarked) [Bupropion, bupropion hydrochloride] | exceeding unity | – | 0.33 | 0.209 ± 0.031 | 0.142 ± 0.004 | 9.3±4.6 ng/g brain | 21.9±5.6 | – | Reported Kp,uu ([1]; cerebral microdialysis, ref Cremers et al., 2016): 1.9 (Cremers et al., [2016]); Unbound fraction in plasma, fu,plasma ([2]; 6 h, pH 7.4): 0.327 ± 0.068; Kp,uu,cell,obs (observed unbound brain intracellular-to-extracellular concentration ratio) [9]: 3.1; Kp uu at 5 h (in vitro [7]; Kp,uu,cell,obs (observed unbound brain intracellular-to-extracellular concentration ratio)): 3.12
